Measured values from patent US20110207789A1, “METHODS RELATED TO CASEIN KINASE II (CK2) INHIBITORS AND THE USE OF PURINOSOME-DISRUPTING CK2 INHIBITORS FOR ANTI-CANCER THERAPY AGENTS” (priority 2010, published 2011).
Read-outs that look alike come from different tables or passages of the source. Each block holds one compound with its values, some of them ahead of it. Numbered stars: 1 amine (or outer) side, 2 acyl side, 3 side chain; on linkers, the order of the positions; unused ones are H or OH. Bridge positions count the residues as written; N and C are the ends. Square brackets hold non-standard residues; d marks the D form. Peptide text beside a SMILES is read from it. Trp(2-yl) = O=C([C@H](Cc1c([*:3])[nH]c2ccccc12)N[*:1])[*:2]; Leu(4R-OH,5-OH) = C[C@](O)(CO)C[C@H](N)C(=O)O; cisHyp = O=C(O)[C@@H]1C[C@H](O)CN1

Experiments:
Assay type in all cases: cell-based
HeLa cells [1] = assay: Label-free Epic DMR assay in HeLa cells cultured in purine depleted medium; settings: TBB 100 μM, DMAT 25 μM
Text: HeLa cells were obtained from American Type Cell Culture (Manassas, Va.). This cervical cancer cell line was maintained in standard serum medium (i.e., minimum essential medium (MEM) (Invitrogen) supplemented with 10% fetal bovine serum (FBS) and 1% Penicillin/streptomycin). To investigate the effects of purine depletion on the purinosome formation and dissociation, HeLa cells were maintained for at least two passages in “purine-depleted medium” prior cell assays. The purine depleted medium is a medium consisting of Roswell Park Memorial Institute 1640 (RPMI 1640) supplemented with dialyzed 5% FBS […]. FBS was dialyzed against 0.9% NaCl at 4° C. for ˜2 days using a 25 kDa MWCO dialysis membrane to remove purines. This process completely removes the purines normally present in FBS. […]
For biosensor cellular assays, compound solutions were made by diluting the stored concentrated solutions with the HBSS (1× Hanks balanced salt solution, plus 20 mM Hepes, pH 7.1), and transferred into a 384 well polypropylene compound storage plate to prepare a compound source plate. […] Both the cell assay plate and the compound source plate(s) were then incubated in the hotel of the reader system. After incubation the baseline wavelengths of all biosensors in the cell assay microplate were recorded and normalized to zero. […]

purinosome complexes = assay: Fluorescence imaging of purinosome complexes, transient transfection of fluorescent purine synthesis enzymes; settings: purine depleted medium cultured cells, low confluency (~50%); data not shown
Text: The inconsistency in the action of TBB between fluorescence imaging and label-free cellular assays can be due to that confocal fluorescence imaging is largely single cell-based, while label-free assay is largely population cells-based, as well as different confluencies used in both assays.

HeLa cells [2] = assay: Label-free Epic RWG biosensor DMR assay in HeLa cells cultured in regular serum medium; settings: for Type of DMR signal triggered by the compound alone: HeLa cells, regular serum medium, high confluency; for EC50: Homo sapiens, synchronized HeLa cells, 25,000 cells per well; for Classification as purinosome promoting or disrupting CK2 inhibitor: from DMR signals in HeLa cells; for Effect on purinosome complexes in quiescent cells: high seeding density; for Effect on purinosome complexes in proliferating cells: low seeding density; for Effect of pretreatment on the TBB DMR response / Effect of pretreatment on the DMAT DMR response: pretreatment about 1 hr, modulators 10 μM; for Effect of pretreatment on the TBB DMR response: then TBB 50 μM; for Effect of pretreatment on the TBB DMR response / Sensitivity of the DMR signal to cellular status / Effect of pretreatment on the sequential TBB response after DMAT / Effect of pretreatment on the sequential DMAT response after TBB: DMAT 25 μM; for Sensitivity of the DMR signal to cellular status: three seeding densities (5,000, 10,000, 20,000 cells per well), TBB 100 μM; for Effect of pretreatment on the DMAT DMR response: then DMAT 25 μM; for Effect of pretreatment on the DMAT DMR response / Effect of pretreatment on the sequential TBB response after DMAT / Effect of pretreatment on the sequential DMAT response after TBB: TBB 50 μM; for Effect of pretreatment on the sequential TBB response after DMAT / Effect of pretreatment on the sequential DMAT response after TBB: order modulator (10 μM), each step about 1 hr
Text: HeLa cells were obtained from American Type Cell Culture (Manassas, Va.). This cervical cancer cell line was maintained in standard serum medium (i.e., minimum essential medium (MEM) (Invitrogen) supplemented with 10% fetal bovine serum (FBS) and 1% Penicillin/streptomycin). To investigate the effects of purine depletion on the purinosome formation and dissociation, HeLa cells were maintained for at least two passages in “purine-depleted medium” prior cell assays. […] FBS was dialyzed against 0.9% NaCl at 4° C. for ˜2 days using a 25 kDa MWCO dialysis membrane to remove purines. This process completely removes the purines normally present in FBS.
Cells were typically grown using ˜1 to 2×10^4 cells per well at passage 3 to 15 suspended in 50 μl of the corresponding culture medium in the biosensor microplate, and were cultured at 37° C. under air/5% CO2 for ˜1 day. The confluency for all cells at the time of assays was ˜100%.
Epic® wavelength interrogation system (Corning Inc., Corning, N.Y.) was used for whole cell sensing. This system consists of a temperature-control unit, an optical detection unit, and an on-board liquid handling unit with robotics. The detection unit is centered on integrated fiber optics, and enables kinetic measures of cellular responses with a time interval of ˜15sec. The compound solutions were introduced by using the on-board liquid handling unit (i.e., pippetting).
(§1) For biosensor cellular assays, compound solutions were made by diluting the stored concentrated solutions with the HBSS (1× Hanks balanced salt solution, plus 20 mM Hepes, pH 7.1), and transferred into a 384 well polypropylene compound storage plate to prepare a compound source plate. Two compound source plates were made separately when a two-step assay was performed. In parallel, the cells were washed twice with the HBSS and maintained in 30 μl of the HBSS to prepare a cell assay plate. Both the cell assay plate and the compound source plate(s) were then incubated in the hotel of the reader system. After incubation the baseline wavelengths of all biosensors in the cell assay microplate were recorded and normalized to zero. Afterwards, a 2 to 10 min continuous recording was carried out to establish a baseline, and to ensure that the cells reached a steady state. Cellular responses were then triggered by transferring 10 μl of the compound solutions into the cell assay plate using the on-board liquid handler.
All studies were carried out at a controlled temperature (28° C.). At least two independent sets of experiments, each with at least three replicates, were performed.

HT29 cells = assay: TBB-mediated DMR signal in HT29 cells; settings: 10 μM TBB, highly confluent cells
Description: as §1, with “All other cell lines were obtained from American Type Cell Culture (Manassas, VA) and were cultured under corresponding standard culture conditions, according to the protocol recommended by the supplier. Cells were typically grown using ˜1 to 2×10^4 cells per well at passage 3 to 15 suspended in 50 μl of the corresponding culture medium in the biosensor microplate, and were cultured at 37° C. under air/5% CO2 for ˜1 day. The confluency for all cells at the time of assays was ˜100%. For” for “For”, “Cellular responses were then triggered by transferring 10 μl of the compound solutions into the cell assay plate using the on-board liquid handler.” left out

Effect on purinosome complexes by fluorescence imaging (purinosome complexes): formation of purinosome complexes
EC50 (HeLa cells [2]; dependent on the time points after stimulation (6 min and 50 min), read-out: EC50 of dose-dependent P-DMR response): 5 to 22 µM
Compound: CN(C)c1nc2c(Br)c(Br)c(Br)c(Br)c2[nH]1 [DMAT, 2-Dimethylamino-4,5,6,7-tetrabromo-1H-benzimidazole]
Type of DMR signal in purine depleted culture (HeLa cells [1]): P-DMR
Type of DMR signal triggered by the compound alone (HeLa cells [2]): P-DMR
Classification as purinosome promoting or disrupting CK2 inhibitor (HeLa cells [2]): purinosome promoting CK2 inhibitors
Effect on purinosome complexes in quiescent cells (HeLa cells [2]): promotes the further formation of purinosome complexes
Effect on purinosome complexes in proliferating cells (HeLa cells [2]): promote the formation of purinosomes
Effect of pretreatment on the TBB DMR response (HeLa cells [2]): N-DMR similar to the buffer treated cells
Sensitivity of the DMR signal to cellular status (HeLa cells [2]): insensitive to cellular status

Compound: OC[C@H]1O[C@@H](n2cnc3cc(Cl)c(Cl)cc32)[C@H](O)[C@@H]1O [DRB, 5,6-Dichlorobenzimidazole 1-(β-D-ribofuranoside]
Type of DMR signal triggered by the compound alone (HeLa cells [2]): DMR signals similar to the DMAT response
Classification as purinosome promoting or disrupting CK2 inhibitor (HeLa cells [2]): purinosome promoting CK2 inhibitors
Effect of pretreatment on the DMAT DMR response (HeLa cells [2]): desensitized
Effect of pretreatment on the TBB DMR response (HeLa cells [2]): slightly potentiated

Effect on purinosome complexes by fluorescence imaging (purinosome complexes): disassembly of purinsome complexes
EC50 (HeLa cells [2]; 50 min, amplitude 50 min after stimulation, read-out: EC50 of dose-dependent N-DMR signal): 25 µM
Compound: Brc1c(Br)c(Br)c2[nH]nnc2c1Br [TBB, 4,5,6,7-tetrabromobenzotriazole]
Type of DMR signal in purine depleted culture (HeLa cells [1]): P-DMR
TBB DMR signal in HT29 cells (HT29 cells): an initial P-DMR followed by a N-DMR
Type of DMR signal triggered by the compound alone (HeLa cells [2]): N-DMR
Classification as purinosome promoting or disrupting CK2 inhibitor (HeLa cells [2]): pruinosome disrupting CK2 inhibitors
Effect on purinosome complexes in quiescent cells (HeLa cells [2]): causes the disassembly of basal purinosome complexes
Effect on purinosome complexes in proliferating cells (HeLa cells [2]): promote the formation of purinosomes
Effect of pretreatment on the DMAT DMR response (HeLa cells [2]): slightly potentiated
Sensitivity of the DMR signal to cellular status (HeLa cells [2]): dramatically sensitive to cellular status

Compound: O=C(O)/C=C/c1cc(Br)c(Br)c(Br)c1Br [TBCA, Tetrabromocinnamic Acid]
Type of DMR signal triggered by the compound alone (HeLa cells [2]): DMR signals similar to the DMAT response
Classification as purinosome promoting or disrupting CK2 inhibitor (HeLa cells [2]): purinosome promoting CK2 inhibitors
Effect of pretreatment on the DMAT DMR response (HeLa cells [2]): desensitized
Effect of pretreatment on the TBB DMR response (HeLa cells [2]): slightly potentiated

Compound: O=c1cc(-c2ccc(O)cc2)oc2cc(O)cc(O)c12 [apigenin]
Type of DMR signal triggered by the compound alone (HeLa cells [2]): DMR signals similar to the DMAT response
Classification as purinosome promoting or disrupting CK2 inhibitor (HeLa cells [2]): purinosome promoting CK2 inhibitors

Compound: Clc1cccc(Cl)c1N=C1NCCN1 [clonidine]
Effect of pretreatment on the TBB DMR response (HeLa cells [2]): dose-dependently potentiated

Compound: C/C1=C/C(=O)O[C@@H]2C[C@@H](CC[C@H](C)/C=C\C=C\CC1)O[C@@](O)([C@@H]1CSC(=O)N1)C2 [latrunculin A]
Effect of pretreatment on the sequential TBB response after DMAT (HeLa cells [2]): altered
Effect of pretreatment on the sequential DMAT response after TBB (HeLa cells [2]): smaller DMAT response
Effect of pretreatment on the DMAT DMR response (HeLa cells [2]): attenuated
Effect of pretreatment on the TBB DMR response (HeLa cells [2]): completely inhibiting the early DMR event

Compound: COC(=O)Nc1nc2ccc(C(=O)c3cccs3)cc2[nH]1 [nocodazole]
Effect of pretreatment on the sequential TBB response after DMAT (HeLa cells [2]): slightly suppressed
Effect of pretreatment on the sequential DMAT response after TBB (HeLa cells [2]): suppression
Effect of pretreatment on the DMAT DMR response (HeLa cells [2]): potentiated
Effect of pretreatment on the TBB DMR response (HeLa cells [2]): reversed

Compound: Cc1cc(C(C)(C)C)c(O)c(C)c1CC1=NCCN1 [oxymetazoline]
Type of DMR signal triggered by the compound alone (HeLa cells [2]): Gi-like DMR signal
Effect of pretreatment on the sequential TBB response after DMAT (HeLa cells [2]): potentiation
Effect of pretreatment on the DMAT DMR response (HeLa cells [2]): attenuated

Compound: C[C@@H]1NC(=O)[C@H](C[C@@](C)(O)CO)NC(=O)[C@@H]2Cc3c([nH]c4ccccc34)SC[C@H](NC(=O)[C@@H]([C@H](C)O)NC1=O)C(=O)N1C[C@@H](O)C[C@H]1C(=O)N[C@@H](C)C(=O)N2 [phalloidin] (cyclo(A[dT]C[cisHyp]A[Trp(2-yl)][Leu(4R-OH,5-OH)]); thioether 3-6)
Effect of pretreatment on the DMAT DMR response (HeLa cells [2]): little impact
Effect of pretreatment on the TBB DMR response (HeLa cells [2]): little impact

Compound: CC(C)(C)NCC(O)c1cc(O)cc(O)c1 (stereo not drawn) [terbutaline]
Type of DMR signal triggered by the compound alone (HeLa cells [2]): Gs-like DMR signal
Effect of pretreatment on the sequential TBB response after DMAT (HeLa cells [2]): little or no impact
Effect of pretreatment on the DMAT DMR response (HeLa cells [2]): little or no impact

Compound: CC[C@]1(O)C[C@@H]2CN(CCc3c([nH]c4ccccc34)[C@@](C(=O)OC)(c3cc4c(cc3OC)N(C)[C@H]3[C@@](O)(C(=O)OC)[C@H](OC(C)=O)[C@]5(CC)C=CCN6CC[C@]43[C@@H]65)C2)C1 [vinblastine]
Effect of pretreatment on the sequential DMAT response after TBB (HeLa cells [2]): suppression
Effect of pretreatment on the TBB DMR response (HeLa cells [2]): reversed
